Source: patent US4459290A, “C-23-Modified derivatives of OMT, pharmaceutical compositions and method of use” (priority 1982, dated 1984)
Values after ≈ are worked out from the molar mass of the structure shown.

How the values were obtained:
[1] = tested on: Haemophilus influenzae Holt; test: MIC, standard agar-dilution assay (Table V); format: cell-based; settings: H. influenzae Holt, ampicillin-sensitive strain; agar dilution
Experimental: (§1) The MIC's in Tables V and VI were determined by standard agar-dilution assays. The MIC's in Table VII were obtained using a conventional broth-dilution microtiter test.

[2] = tested on: Streptococcus pyogenes C203; test: MIC, standard agar-dilution assay (Table V); format: cell-based; settings: S. pyogenes C203; agar dilution
Experimental: as §1

[3] = tested on: Haemophilus influenzae R252; test: MIC, standard agar-dilution assay (Table V); format: cell-based; settings: H. influenzae R252, ampicillin-resistant strain; agar dilution
Experimental: as §1

Escherichia coli TEM = test: MIC, standard agar-dilution assay (Table V); format: cell-based; settings: E. coli TEM; agar dilution
Experimental: as §1

Streptococcus Group 9960 = test: MIC, standard agar-dilution assay (Table V); format: cell-based; settings: Streptococcus Group 9960; agar dilution
Experimental: (§2) Especially noteworthy is the improved activity against gram-negative bacteria for several derivatives when compared to the activity of OMT. […] The MIC's in Tables V and VI were determined by standard agar-dilution assays. The MIC's in Table VII were obtained using a conventional broth-dilution microtiter test.

[4] = tested on: Staphylococcus aureus X400; test: MIC, standard agar-dilution assay (Table V); format: cell-based; settings: S. aureus X400, methicillin-resistant strain; agar dilution
Experimental: as §2

Escherichia coli N10 = test: MIC, standard agar-dilution assay (Table V); format: cell-based; settings: E. coli N10; agar dilution
Experimental: as §2

[5] = tested on: Staphylococcus epidermidis EPI1; test: MIC, standard agar-dilution assay (Table V); format: cell-based; settings: S. epidermidis EPI1; agar dilution
Experimental: as §2

[6] = tested on: Staphylococcus epidermidis EPI2; test: MIC, standard agar-dilution assay (Table V); format: cell-based; settings: S. epidermidis EPI2; agar dilution
Experimental: as §2

[7] = tested on: Staphylococcus aureus V41; test: MIC, standard agar-dilution assay (Table V); format: cell-based; settings: S. aureus V41, penicillin-resistant strain; agar dilution
Experimental: as §2

[8] = tested on: Klebsiella pneumoniae KAE; test: MIC, standard agar-dilution assay (Table V); format: cell-based; settings: K. pneumoniae KAE; agar dilution
Experimental: as §2

[9] = tested on: Streptococcus Group D X66; test: MIC, standard agar-dilution assay (Table V); format: cell-based; settings: Streptococcus Group D X66; agar dilution
Experimental: as §2

Escherichia coli EC14 = test: MIC, standard agar-dilution assay (Table V); format: cell-based; settings: E. coli EC14; agar dilution
Experimental: as §2

[10] = tested on: Staphylococcus aureus X1.1; test: MIC, standard agar-dilution assay (Table V); format: cell-based; settings: S. aureus X1.1; agar dilution
Experimental: as §2

[11] = tested on: Staphylococcus aureus S13E; test: MIC, standard agar-dilution assay (Table V); format: cell-based; settings: S. aureus S13E; agar dilution
Experimental: as §2

[12] = tested on: Klebsiella pneumoniae X26; test: MIC, standard agar-dilution assay (Table V); format: cell-based; settings: K. pneumoniae X26; agar dilution
Experimental: as §2

[13] = tested on: Streptococcus pneumoniae Park I; test: microbe, parasite or virus in culture; format: cell-based; settings: S. pneumoniae Park I; agar dilution
Experimental: as §2

[14] = tested on: Pasteurella hemolytica 23C; test: MIC, broth-dilution microtiter test (Table VII); format: cell-based; settings: P. hemolytica 23C
Experimental: as §2

Mycoplasma synoviae = test: MIC, broth-dilution microtiter test (Table VII); format: cell-based; settings: M. synoviae; broth-dilution microtiter
Experimental: as §2

Streptococcus sp. 80 = test: MIC, broth-dilution microtiter test (Table VII); format: cell-based; settings: Streptococcus sp. 80; broth-dilution microtiter
Experimental: as §2

[15] = tested on: Pasteurella hemolytica 22C; test: MIC, broth-dilution microtiter test (Table VII); format: cell-based; settings: P. hemolytica 22C
Experimental: as §2

[16] = tested on: Pasteurella multocida 22A; test: MIC, broth-dilution microtiter test (Table VII); format: cell-based; settings: P. multocida 22A; broth-dilution microtiter
Experimental: as §2

Staphylococcus aureus = test: MIC, broth-dilution microtiter test (Table VII); format: cell-based; settings: S. aureus; broth-dilution microtiter
Experimental: as §2

Mycoplasma gallisepticum = test: MIC, broth-dilution microtiter test (Table VII); format: cell-based; settings: M. gallisepticum; broth-dilution microtiter
Experimental: as §2

Mycoplasma hyorhinis = test: MIC, broth-dilution microtiter test (Table VII); format: cell-based; settings: M. hyorhinis; broth-dilution microtiter
Experimental: as §2

[17] = tested on: Pasteurella hemolytica 41D; test: MIC, broth-dilution microtiter test (Table VII); format: cell-based; settings: P. hemolytica 41D
Experimental: as §2

[18] = tested on: Pasteurella multocida 40G; test: MIC, broth-dilution microtiter test (Table VII); format: cell-based; settings: P. multocida 40G; broth-dilution microtiter
Experimental: as §2

[19] = tested on: Pasteurella multocida 60A; test: MIC, broth-dilution microtiter test (Table VII); format: cell-based; settings: P. multocida 60A, avian isolate; broth-dilution microtiter
Experimental: as §2

[20] = tested on: Pasteurella multocida 17E; test: MIC, broth-dilution microtiter test (Table VII); format: cell-based; settings: P. multocida 17E, bovine isolate; broth-dilution microtiter
Experimental: as §2

[21] = tested on: Pasteurella multocida 68C; test: MIC, broth-dilution microtiter test (Table VII); format: cell-based; settings: P. multocida 68C; broth-dilution microtiter
Experimental: as §2

Pasteurella multocida = test: Protection of one-day-old chicks against Pasteurella multocida infection (Table IX); format: in vivo; settings: subcutaneous 30 mg/kg × 2, 1 and 4 hours post-challenge
Experimental: The C-23 modified derivatives of OMT have also shown in vivo antibacterial activity against infections induced by gram-negative bacteria. Table IX summarizes the results of tests in which illustrative compounds were evaluated against Pasteurella infections in one-day-old chicks. The compounds were administered by subcutaneous injection at a dosage of 30 mg/kg, 1 and 4 hours post-challenge of the chicks with Pasteurella multocida (0.1 ml of a twenty-hour tryptose broth culture of an avian P. multocida given subcutaneously). In the tests, all ten non-medicated infected chicks died within 24 hours of Pasteurella challenge.

Compound	MIC [1]	MIC [2] [µg/mL]	MIC [3]	MIC (Escherichia coli TEM)	MIC (Streptococcus Group 9960) [µg/mL]	MIC [4] [µg/mL]	MIC (Escherichia coli N10)	MIC [5] [µg/mL]	MIC [6] [µg/mL]	MIC [7] [µg/mL]	MIC [8]	MIC [9] [µg/mL]	MIC (Escherichia coli EC14)	MIC [10] [µg/mL]	MIC [11] [µg/mL]	MIC [12]	MIC [13] [µg/mL]	MIC [14] [µg/mL]	MIC (Mycoplasma synoviae) [µg/mL]	MIC (Streptococcus sp. 80) [µg/mL]	other results
CCC1OC(=O)CC(O)C(C)C(OC2OC(C)C(O)C(N(C)C)C2O)C(CC=O)CC(C)C(=O)C=CC(C)=CC1CNC(=O)CNC(=O)C(C)N (centres unmarked) [Compound 14]	-- (MIC ≥ 128)	16 (≈ 22.1 µM)	-- (MIC ≥ 128)	-- (MIC ≥ 128)	64 (≈ 88.3 µM)	128 (≈ 177 µM)	-- (MIC ≥ 128)	64 (≈ 88.3 µM)	64 (≈ 88.3 µM)	64 (≈ 88.3 µM)	-- (MIC ≥ 128)	64 (≈ 88.3 µM)	-- (MIC ≥ 128)	64 (≈ 88.3 µM)	64 (≈ 88.3 µM)	-- (MIC ≥ 128)	16 (≈ 22.1 µM)	> 50	6.25 (≈ 8.62 µM)	25 (≈ 34.5 µM)	MIC [15]: > 50 µg/mL; MIC [16]: > 50 µg/mL; MIC (Staphylococcus aureus): > 50 µg/mL; MIC (Mycoplasma gallisepticum): 12.5 µg/mL (≈ 17.2 µM); MIC (Mycoplasma hyorhinis): 50 µg/mL (≈ 69 µM); MIC [17]: > 50 µg/mL; MIC [18]: > 50 µg/mL; MIC [19]: > 50 µg/mL; MIC [20]: > 50 µg/mL; MIC [21]: > 50 µg/mL; Number of deaths/number treated (Pasteurella multocida): 10/10
CCC1OC(=O)CC(O)C(C)C(OC2OC(C)C(O)C(N(C)C)C2O)C(CC=O)CC(C)C(=O)C=CC(C)=CC1CNC(=O)CNC(=O)C(C)NC(=O)OC(C)(C)C (centres unmarked) [Compound 13]	64 µg/mL (≈ 77.6 µM)	4 (≈ 4.85 µM)	64 µg/mL (≈ 77.6 µM)	-- (MIC ≥ 128)	32 (≈ 38.8 µM)	32 (≈ 38.8 µM)	-- (MIC ≥ 128)	16 (≈ 19.4 µM)	32 (≈ 38.8 µM)	32 (≈ 38.8 µM)	-- (MIC ≥ 128)	32 (≈ 38.8 µM)	-- (MIC ≥ 128)	16 (≈ 19.4 µM)	32 (≈ 38.8 µM)	-- (MIC ≥ 128)	4 (≈ 4.85 µM)	> 50	12.5 (≈ 15.2 µM)	6.25 (≈ 7.58 µM)	MIC [15]: > 50 µg/mL; MIC [16]: > 50 µg/mL; MIC (Staphylococcus aureus): 25 µg/mL (≈ 30.3 µM); MIC (Mycoplasma gallisepticum): 6.25 µg/mL (≈ 7.58 µM); MIC (Mycoplasma hyorhinis): 50 µg/mL (≈ 60.6 µM); MIC [17]: > 50 µg/mL; MIC [18]: 50 µg/mL (≈ 60.6 µM); MIC [19]: 50 µg/mL (≈ 60.6 µM); MIC [20]: 50 µg/mL (≈ 60.6 µM); MIC [21]: 50 µg/mL (≈ 60.6 µM); Number of deaths/number treated (Pasteurella multocida): 7/10
